The assay concerns histamine evoked asthma in conscious guinea-pigs. Description: Time course of anti-asthma effects after oral administration or inhalation. The assay is classed as in vivo. To be noted: for No. of collapsed: n=8. As for the experimental part: The time course of the anti-asthma effects of R-bambuterol (R-BM) and bambuterol (RS-BM) after administered by oral and by inhalation. Test Methods: same as example 1 except the following:
For orally administration, R-Bambuterol hydrochloride or racemic bambuterol hydrochloride at 4 and 8 mg/kg, and vehicle alone, were administered to the guinea pigs orally via a stomach tube. Exposure of treated animals to aerosol histamine (as above) was done at 1, 4 and 12 hours after R-bambuterol or bambuterol treatment. For each experimental group, there were a total of 8 animals with equal number in sex, and no repeated exposure was made for individual experimental animals.
For inhalation, R-Bambuterol hydrochloride or racemic bambuterol hydrochloride at 0.252 and 0.504 mg/kg, and vehicle alone, were nebulized and administered to the guinea pigs by inhalation. Exposure of drug treated animals to aerosol histamine (as above) was done at 1,4 and 12 hours after drug treatment. For each experimental group, there were a total of 8 animals with equal number in sex, and no repeated exposure was made for individual experimental animals.

Where [1] appears, read: inhalation (R-BM 252 μg/kg, RS-BM 504 μg/kg), histamine 60 min after.
Where [2] appears, read: inhalation (R-BM 252 μg/kg, RS-BM 504 μg/kg), histamine 240 min after.
[3] abbreviates: inhalation (R-BM 252 μg/kg, RS-BM 504 μg/kg), histamine 720 min after.
Setting [4] is: oral (R-BM 4.0 mg/kg, RS-BM 8.0 mg/kg), histamine 60 min after.
The mark [5] stands for this setting: oral (R-BM 4.0 mg/kg, RS-BM 8.0 mg/kg), histamine 240 min after.
Where [6] appears, read: oral (R-BM 4.0 mg/kg, RS-BM 8.0 mg/kg), histamine 720 min after.

Molecules are shown by their SMILES.

For `CN(C)C(=O)Oc1cc(OC(=O)N(C)C)cc([C@@H](O)CNC(C)(C)C)c1` [R-bambuterol], the Latency runs as follows: under setting [1], 360 ± 0 s; under setting [2], 360 ± 0 s; under setting [3], 330 ± 84 s; under setting [4], 258 ± 141 s; under setting [5], 360 ± 0 s; under setting [6], 285 ± 129 s. Besides, the No. of collapsed is reported as 0/8 under setting [1]; 0/8 under setting [2]; 1/8 under setting [3]; 3/8 under setting [4]; 0/8 under setting [5]; 2/8 under setting [6]. Moreover, the “maximum anti-asthmatic effects by inhalation faster than by oral administration” value (inhalation vs oral) amounted to 4 h.
